Data reported in patent US20250281572A1, “COMPOSITIONS AND METHODS FOR TREATING AND PREVENTING METABOLIC DISORDERS” (The Johns Hopkins University, priority 2022, published 2025).
One block for each molecule: values may come before it. No end group written: not given here.

Columns and labels:
AMPKα1 [1] = experiment: AMPK phosphorylation in cAMP-treated Hepa1-6 cells; assay type: cell-based; conditions: Hepa1-6 cells with cAMP (0.2 mM)
[2] = biological target: AMPKα1 (AMP-activated protein kinase catalytic subunit alpha 1), FLAG-tagged, wild type (UniProt Q13131)
Target sequence in this assay (Q13131 whole entry, looked up, tested part not stated): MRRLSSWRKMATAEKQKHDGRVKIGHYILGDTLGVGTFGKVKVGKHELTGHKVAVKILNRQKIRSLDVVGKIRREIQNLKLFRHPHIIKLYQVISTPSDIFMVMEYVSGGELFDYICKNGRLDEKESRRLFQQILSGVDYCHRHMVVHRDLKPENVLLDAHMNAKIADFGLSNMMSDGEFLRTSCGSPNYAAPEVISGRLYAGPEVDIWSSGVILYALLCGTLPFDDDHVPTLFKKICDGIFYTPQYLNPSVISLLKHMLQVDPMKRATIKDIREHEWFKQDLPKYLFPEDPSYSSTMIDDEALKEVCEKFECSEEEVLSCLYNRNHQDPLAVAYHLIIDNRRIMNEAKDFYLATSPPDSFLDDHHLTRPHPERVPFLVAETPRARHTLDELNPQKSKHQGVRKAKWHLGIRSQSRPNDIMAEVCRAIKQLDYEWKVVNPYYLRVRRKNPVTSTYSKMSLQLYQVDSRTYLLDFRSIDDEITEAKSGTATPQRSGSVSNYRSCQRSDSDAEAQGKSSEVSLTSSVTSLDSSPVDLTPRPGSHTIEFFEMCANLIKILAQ

[3] = tested on: T1, peptide a1m (TPQRSGSISNYRSCQR)
T1 sequence: TPQRSGSISNYRSCQR

[4] = biological target: AMPKα1 (AMP-activated protein kinase catalytic subunit alpha 1), FLAG-tagged, wild type (UniProt Q13131); experiment: cell-based or functional assay
Target sequence in this assay (Q13131 whole entry): as the sequence (Q13131 whole entry, looked up, tested part not stated) above

[5] = biological target: AMPKα1 phosphorylated at S496 (UniProt Q13131)
Chain of AMPKα1 phosphorylated at S496 (Q13131 whole entry, looked up): as the sequence (Q13131 whole entry, looked up, tested part not stated) above

[6] = biological target: AMPKα2 phosphorylated at S491 (UniProt P54646)
Chain of AMPKα2 phosphorylated at S491 (P54646 whole entry, looked up): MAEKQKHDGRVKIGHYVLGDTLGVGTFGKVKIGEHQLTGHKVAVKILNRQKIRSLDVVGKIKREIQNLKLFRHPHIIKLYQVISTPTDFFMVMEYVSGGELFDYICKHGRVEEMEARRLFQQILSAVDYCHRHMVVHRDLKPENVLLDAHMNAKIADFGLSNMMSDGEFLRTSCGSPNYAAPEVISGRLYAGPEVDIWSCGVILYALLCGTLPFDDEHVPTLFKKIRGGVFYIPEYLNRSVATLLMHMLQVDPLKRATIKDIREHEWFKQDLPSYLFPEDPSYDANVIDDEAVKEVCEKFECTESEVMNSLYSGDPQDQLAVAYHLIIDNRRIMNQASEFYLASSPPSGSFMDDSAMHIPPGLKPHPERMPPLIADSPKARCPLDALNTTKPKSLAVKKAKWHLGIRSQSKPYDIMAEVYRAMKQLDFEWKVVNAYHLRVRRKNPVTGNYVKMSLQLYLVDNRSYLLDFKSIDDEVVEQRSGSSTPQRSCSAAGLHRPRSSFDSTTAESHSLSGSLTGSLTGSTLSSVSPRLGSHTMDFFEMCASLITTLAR

[7] = biological target: AMPKα2 (AMP-activated protein kinase catalytic subunit alpha 2) (UniProt P54646)
Chain of AMPKα2 (AMP-activated protein kinase catalytic subunit alpha 2) (P54646 whole entry, looked up, tested part not stated): as the sequence (P54646 whole entry, looked up) above

AMPKα1 [8] = experiment: In vitro phosphorylation assay of AMPKα1 at S496 by PKA or AKT; assay type: biochemical; conditions: in vitro assays
Experimental: (§1) In vitro phosphorylation assays. Purified AMPKα1 protein was incubated with 1 μg of PKA catalytic subunit (Millipore) or 0.54 ug of AKT1 (abcam), 1× kinase buffer (Cell signaling) and 0.2 mM ATP at room temperature for the indicated time. To test the phosphorylation of PKA-mediated AMPK phosphorylation at S496/491 on a subunit phosphorylation at T172, AMPKα subunits were phosphorylated at S496/491 by PKA at 37° C. for 1 h, followed by the addition of 25 ng LKB1-STRAD-MO25 (Millipore), then incubated at room temperature for 30 min.

AMPKα2 = experiment: In vitro phosphorylation assay of AMPKα2 at S491 by PKA; assay type: biochemical
Experimental: as §1

[9] = Viable MCF-7 breast cancer cells; assay type: cell-based; conditions: 500 μM; read-out: reduction of viable MCF-7 cancer cells
[10] = tested on: human colon cancer Caco2 cells; experiment: Growth of colon cancer Caco2 cells; assay type: cell-based; conditions: FIG. 25b
primary hepatocytes = conditions: 10 μM, 16 h, versus control peptide TAT
Experimental: Primary hepatocytes prepared from elderly mice (78 weeks of age) were treated with 10 μM of control peptide TAT or Pa496m for 16 h.

HFD-fed mice = experiment: Intraperitoneal treatment of HFD-fed mice; assay type: in vivo, mouse; conditions: intraperitoneal 10 nMole/g/day for 5 days, then 15 nMole/g/day for another 5 days
[11] = tested on: human primary hepatocytes

Chain of AMPKγ1, FLAG-tagged (O54950 whole entry): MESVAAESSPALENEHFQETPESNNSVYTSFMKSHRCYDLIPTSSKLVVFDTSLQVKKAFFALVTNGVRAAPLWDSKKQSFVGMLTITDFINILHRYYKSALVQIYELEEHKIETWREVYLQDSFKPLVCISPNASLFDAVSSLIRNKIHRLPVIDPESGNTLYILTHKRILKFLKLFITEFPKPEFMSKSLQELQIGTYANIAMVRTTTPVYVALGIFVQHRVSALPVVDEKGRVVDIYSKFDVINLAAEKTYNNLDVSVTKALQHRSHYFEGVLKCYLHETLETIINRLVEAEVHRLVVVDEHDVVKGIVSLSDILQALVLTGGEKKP
Chain of AMPKβ1, FLAG-tagged (Q9R078 2-270): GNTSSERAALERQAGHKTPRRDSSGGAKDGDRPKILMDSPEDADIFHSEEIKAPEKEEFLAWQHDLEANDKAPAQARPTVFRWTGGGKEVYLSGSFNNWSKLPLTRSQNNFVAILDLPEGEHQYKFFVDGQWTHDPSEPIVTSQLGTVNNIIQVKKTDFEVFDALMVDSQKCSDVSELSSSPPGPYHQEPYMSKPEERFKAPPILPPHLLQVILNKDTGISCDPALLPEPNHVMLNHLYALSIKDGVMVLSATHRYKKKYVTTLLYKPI

Molecule: O=S(=O)(NCCNC/C=C/c1ccc(Br)cc1)c1cccc2cnccc12 [Peptide H89]
phosphorylation of AMPKαT172 and MFF (AMPKα1 [1]): reversed the negative effect of cAMP

Molecule: AKT1 (abcam)
in vitro phosphorylation of AMPKα1 at S496 [2]: PKA- or AKT-mediated phosphorylation of AMPKα1 at S496 in in vitro assays
in vitro phosphorylation of AMPKα1 at S496 by AKT [3]: this peptide could effectively antagonize PKA- or AKT-mediated phosphorylation of AMPKα1 at S496 in in vitro assays

AMPK enzymatic activity (% of enzymatic activity lost) [4]: 80
Molecule: AMPKβ1, FLAG-tagged

AMPK enzymatic activity (% of enzymatic activity lost) [4]: 80
Molecule: AMPKγ1, FLAG-tagged

Molecule: LKB1-STRAD-MO25 (Millipore)
in vitro phosphorylation of AMPKα at T172 [5]: the phosphorylation at these sites decreased the phosphorylation of AMPKα at T172 by upstream kinase LKB1
in vitro phosphorylation of AMPKα at T172 [6]: the phosphorylation at these sites decreased the phosphorylation of AMPKα at T172 by upstream kinase LKB1

Molecule: PKA catalytic subunit (Millipore)
in vitro phosphorylation of AMPKα1 at S496 [2]: PKA can directly phosphorylate AMPKα1 at S496
in vitro phosphorylation of AMPKα2 at S491 [7]: PKA can directly phosphorylate AMPKα1 at S496 (FIGS. 3a, b) and AMPKα2 at S491 (FIG. 3c)
in vitro phosphorylation of AMPKα1 at S496 by PKA [3]: this peptide could effectively antagonize PKA- or AKT-mediated phosphorylation of AMPKα1 at S496 in in vitro assays
in vitro phosphorylation of AMPKα2 at S491 by PKA [3]: this targeting-peptide a1m could antagonize the phosphorylation of AMPKα2 at S491 by PKA as well

Molecule: TPQRSGSISNYRSCQR [a1m, corresponds to mouse AMPKα1 from 490-505 a.a]
PKA- or AKT-mediated phosphorylation of AMPKα1 at S496 (AMPKα1 [8]): effectively antagonize
phosphorylation of AMPKα2 at S491 by PKA (AMPKα2): could antagonize

growth of colon carcinoma Caco2 cells [10]: could inhibit
Molecule: YGRKKRRQRRRTPQRSCSAAGLHR [Pa2-491]
cytotoxicity [9]: > 90%

Molecule: YGRKKRRQRRRTPQRSGSISNYRSCQR [Pa496m]
cytotoxicity [9]: > 90%
fat content in hepatocytes (primary hepatocytes): significantly decreased

Molecule: YGRKKRRQRRRTPQRSGSVSNYRSCQR [Pa496h]
injury to the liver (HFD-fed mice): without causing injury to the liver
cytotoxicity [9]: > 90%
growth of colon carcinoma Caco2 cells [10]: could inhibit
decrease of hepatocytes' viability [11]: 19.8%
viability of human primary hepatocytes ([11]; 100 μM): did not significantly affected
